Results reported in the supplement of paper PMC10307832.

Tests used:
Experiment in all cases: relative viability (nuclei count vs DMSO), 5 days (fraction); higher = more cells survive
COR-L23 = test system: COR-L23
How it was run: (§1)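 Values are medians from duplicate plates. Each reflects relative viability, defined as the nuclei count of treated wells over that of vehicle wells. Lung cancer cell lines in 1536-well plates were pin-tool dosed one day after seeding with one drug alone or with a fixed anchor-drug dose plus five library-drug doses (not always all listed) in √10 steps, then fixed, stained and imaged at 4× after 5 days.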

EKVX = test system: EKVX
How it was run: as §1

EMC-BAC-2 = test system: EMC-BAC-2
How it was run: as §1

H3255 = test system: H3255
How it was run: as §1

HARA = test system: HARA
How it was run: as §1

HCC-15 = test system: HCC-15
How it was run: as §1

HCC-827 = test system: HCC-827
How it was run: as §1

LC-2-ad = test system: LC-2-ad
How it was run: as §1

LCLC-97TM1 = test system: LCLC-97TM1
How it was run: as §1

NCI-H1355 = test system: NCI-H1355
How it was run: as §1

NCI-H1755 = test system: NCI-H1755
How it was run: as §1

NCI-H1792 = test system: NCI-H1792
How it was run: as §1

NCI-H1915 = test system: NCI-H1915
How it was run: as §1

NCI-H2126 = test system: NCI-H2126
How it was run: as §1

NCI-H23 = test system: NCI-H23
How it was run: as §1

NCI-H2405 = test system: NCI-H2405
How it was run: as §1

NCI-H3122 = test system: NCI-H3122
How it was run: as §1

NCI-H520 = test system: NCI-H520
How it was run: as §1

NCI-H522 = test system: NCI-H522
How it was run: as §1

NCI-H661 = test system: NCI-H661
How it was run: as §1

NCI-H838 = test system: NCI-H838
How it was run: as §1

RERF-LC-KJ = test system: RERF-LC-KJ
How it was run: as §1

SW 1573 = test system: SW 1573
How it was run: as §1

SW 900 = test system: SW 900
How it was run: as §1

UMC-11 = test system: UMC-11
How it was run: as §1

## Nc1cccc2c1CN(C1CCC(=O)NC1=O)C2=O (stereo unspecified) [Lenalidomide] + O=C(c1cc(Cc2n[nH]c(=O)c3ccccc23)ccc1F)N1CCN(C(=O)C2CC2)CC1 [Olaparib] (partner 8 µM)
COR-L23; first compound 0.253 µM
  relative viability: 0.329
COR-L23; first compound 0.8 µM
  relative viability: 0.316
COR-L23; first compound 2.53 µM
  relative viability: 0.356
COR-L23; first compound 8 µM
  relative viability: 0.393
EKVX; first compound 0.253 µM
  relative viability: 0.776
EKVX; first compound 0.8 µM
  relative viability: 0.754
EKVX; first compound 2.53 µM
  relative viability: 0.87
EKVX; first compound 8 µM
  relative viability: 0.786
EMC-BAC-2; first compound 0.253 µM
  relative viability: 0.479
EMC-BAC-2; first compound 0.8 µM
  relative viability: 0.395
EMC-BAC-2; first compound 2.53 µM
  relative viability: 0.52
EMC-BAC-2; first compound 8 µM
  relative viability: 0.461
H3255; first compound 0.253 µM
  relative viability: 0.556
H3255; first compound 0.8 µM
  relative viability: 0.579
H3255; first compound 2.53 µM
  relative viability: 0.602
H3255; first compound 8 µM
  relative viability: 0.614
HARA; first compound 0.253 µM
  relative viability: 0.925
HARA; first compound 2.53 µM
  relative viability: 0.804
HARA; first compound 8 µM
  relative viability: 1.01
HCC-15; first compound 0.253 µM
  relative viability: 0.686
HCC-15; first compound 0.8 µM
  relative viability: 0.728
HCC-15; first compound 2.53 µM
  relative viability: 0.819
HCC-15; first compound 8 µM
  relative viability: 0.706
HCC-827; first compound 0.253 µM
  relative viability: 0.633
HCC-827; first compound 0.8 µM
  relative viability: 0.57
HCC-827; first compound 2.53 µM
  relative viability: 0.668
HCC-827; first compound 8 µM
  relative viability: 0.612
LC-2-ad; first compound 0.253 µM
  relative viability: 0.359
LC-2-ad; first compound 0.8 µM
  relative viability: 0.716
LC-2-ad; first compound 2.53 µM
  relative viability: 0.777
LC-2-ad; first compound 8 µM
  relative viability: 0.782
LCLC-97TM1; first compound 0.253 µM
  relative viability: 0.403
LCLC-97TM1; first compound 0.8 µM
  relative viability: 0.38
LCLC-97TM1; first compound 2.53 µM
  relative viability: 0.433
LCLC-97TM1; first compound 8 µM
  relative viability: 0.36
NCI-H1355; first compound 0.253 µM
  relative viability: 0.756
NCI-H1355; first compound 0.8 µM
  relative viability: 0.5
NCI-H1355; first compound 2.53 µM
  relative viability: 0.857
NCI-H1355; first compound 8 µM
  relative viability: 0.709
NCI-H1755; first compound 0.253 µM
  relative viability: 0.86
NCI-H1755; first compound 0.8 µM
  relative viability: 0.861
NCI-H1755; first compound 2.53 µM
  relative viability: 0.899
NCI-H1755; first compound 8 µM
  relative viability: 0.777
NCI-H1792; first compound 0.253 µM
  relative viability: 0.609
NCI-H1792; first compound 0.8 µM
  relative viability: 0.378
NCI-H1792; first compound 2.53 µM
  relative viability: 0.588
NCI-H1792; first compound 8 µM
  relative viability: 0.485
NCI-H1915; first compound 0.253 µM
  relative viability: 0.265
NCI-H1915; first compound 0.8 µM
  relative viability: 0.263
NCI-H1915; first compound 2.53 µM
  relative viability: 0.284
NCI-H1915; first compound 8 µM
  relative viability: 0.272
NCI-H2126; first compound 0.253 µM
  relative viability: 0.934
NCI-H2126; first compound 0.8 µM
  relative viability: 0.857
NCI-H2126; first compound 2.53 µM
  relative viability: 0.983
NCI-H2126; first compound 8 µM
  relative viability: 0.854
NCI-H23; first compound 0.253 µM
  relative viability: 0.289
NCI-H23; first compound 2.53 µM
  relative viability: 0.3
NCI-H23; first compound 8 µM
  relative viability: 0.367
NCI-H2405; first compound 0.253 µM
  relative viability: 0.866
NCI-H2405; first compound 0.8 µM
  relative viability: 0.877
NCI-H2405; first compound 2.53 µM
  relative viability: 0.879
NCI-H2405; first compound 8 µM
  relative viability: 0.86
NCI-H3122; first compound 0.253 µM
  relative viability: 0.596
NCI-H3122; first compound 0.8 µM
  relative viability: 0.579
NCI-H3122; first compound 2.53 µM
  relative viability: 0.623
NCI-H3122; first compound 8 µM
  relative viability: 0.745
NCI-H520; first compound 0.253 µM
  relative viability: 0.368
NCI-H520; first compound 0.8 µM
  relative viability: 0.359
NCI-H520; first compound 2.53 µM
  relative viability: 0.375
NCI-H520; first compound 8 µM
  relative viability: 0.35
NCI-H522; first compound 0.253 µM
  relative viability: 0.676
NCI-H522; first compound 0.8 µM
  relative viability: 0.672
NCI-H522; first compound 2.53 µM
  relative viability: 0.58
NCI-H522; first compound 8 µM
  relative viability: 0.608
NCI-H661; first compound 0.253 µM
  relative viability: 0.725
NCI-H661; first compound 0.8 µM
  relative viability: 0.756
NCI-H661; first compound 2.53 µM
  relative viability: 0.735
NCI-H661; first compound 8 µM
  relative viability: 0.704
NCI-H838; first compound 0.253 µM
  relative viability: 0.75
NCI-H838; first compound 0.8 µM
  relative viability: 0.774
NCI-H838; first compound 2.53 µM
  relative viability: 0.781
NCI-H838; first compound 8 µM
  relative viability: 0.79
RERF-LC-KJ; first compound 0.253 µM
  relative viability: 0.812
RERF-LC-KJ; first compound 0.8 µM
  relative viability: 0.704
RERF-LC-KJ; first compound 2.53 µM
  relative viability: 0.884
RERF-LC-KJ; first compound 8 µM
  relative viability: 1.05
SW 1573; first compound 0.253 µM
  relative viability: 0.492
SW 1573; first compound 0.8 µM
  relative viability: 0.545
SW 1573; first compound 2.53 µM
  relative viability: 0.468
SW 1573; first compound 8 µM
  relative viability: 0.606
SW 900; first compound 2.53 µM
  relative viability: 0.913
SW 900; first compound 8 µM
  relative viability: 0.858
UMC-11; first compound 0.253 µM
  relative viability: 0.398
UMC-11; first compound 0.8 µM
  relative viability: 0.695
UMC-11; first compound 2.53 µM
  relative viability: 0.416
UMC-11; first compound 8 µM
  relative viability: 0.405
